Values after ≈ are worked out from the molar mass of the structure shown.
Key:
[1] = tested on: HEL; test: Inhibitory effect on replication of DNA virus TK-VZV (07-1) on HEL cell line.; format: functional, cell-based; settings: Homo sapiens
[2] = tested on: Vero; test: Inhibitory effect on replication of RNA virus RNA synthesis in Vero cell line.; format: functional, cell-based; settings: Chlorocebus sabaeus
[3] = tested on: HeLa; test: Inhibitory effect on replication of RNA virus RSV in HeLa cell line; format: functional, cell-based; settings: Homo sapiens
[4] = tested on: Vero; test: Inhibitory effect on replication of RNA virus cell morphology in Vero cell line.; format: functional, cell-based; settings: Chlorocebus sabaeus
[5] = tested on: PRK; test: Inhibitory effect on replication of DNA virus Cell morphology on PRK cell line; format: functional, cell-based; settings: Oryctolagus cuniculus
[6] = tested on: Vero; test: Inhibitory effect on replication of RNA virus coxsB-4 in Vero cell line; format: functional, cell-based; settings: Chlorocebus sabaeus
[7] = tested on: Vero; test: Inhibitory effect on replication of RNA virus PV-3 in Vero cell line.; format: functional, cell-based; settings: Chlorocebus sabaeus
[8] = tested on: MDCK; test: cells; settings: Canis lupus familiaris
[9] = tested on: Vero; test: Inhibitory effect on replication of RNA virus protein synthesis in Vero cell line.; format: functional, cell-based; settings: Chlorocebus sabaeus
[10] = tested on: Vero; test: Inhibitory effect on replication of RNA virus TV in Vero cell line.; format: functional, cell-based; settings: Chlorocebus sabaeus
[11] = tested on: PRK; test: Inhibitory effect on replication of RNA virus VSV in PRK cell line.; format: functional, cell-based; settings: Oryctolagus cuniculus
[12] = Inhibitory effect on replication of DNA virus HSV-2 (G) in PRK cell line.; format: functional, cell-based; settings: Oryctolagus cuniculus
[13] = tested on: Vero; test: Inhibitory effect on replication of RNA virus JV in Vero cell line.; format: functional, cell-based; settings: Chlorocebus sabaeus
[14] = tested on: MDCK; test: Inhibitory effect on replication of RNA virus cell morphology in MDCK cell line.; format: functional, cell-based; settings: Canis lupus familiaris
[15] = tested on: HEL; test: Inhibitory effect on replication of DNA virus CMV (AD-169) on HEL cell line.; format: functional, cell-based; settings: Homo sapiens
[16] = tested on: HeLa; test: cells; settings: Homo sapiens
[17] = tested on: Vero; test: Inhibitory effect on replication of RNA virus SFV in Vero cell line; format: functional, cell-based; settings: Chlorocebus sabaeus
[18] = tested on: HEL; test: Inhibitory effect on replication of DNA virus TK-VZV (YSR) on HEL cell line.; format: functional, cell-based; settings: Homo sapiens
[19] = tested on: Vero; test: Inhibitory effect on replication of RNA virus measles on Vero cell line.; format: functional, cell-based; settings: Chlorocebus sabaeus
[20] = tested on: PRK; test: Inhibitory effect on replication of DNA virus VV on PRK cell line.; format: functional, cell-based; settings: Oryctolagus cuniculus
[21] = tested on: HEL; test: Inhibitory effect on replication of DNA virus VZV (YS) on HEL cell line.; format: functional, cell-based; settings: Homo sapiens
[22] = tested on: HEL; test: Inhibitory effect on replication of DNA virus VZV (Oka) on HEL cell line.; format: functional, cell-based; settings: Homo sapiens
[23] = tested on: HEL; test: Inhibitory effect on replication of DNA virus CMV (Davis) on HEL cell line.; format: functional, cell-based; settings: Homo sapiens
[24] = tested on: MT4; test: Inhibitory effect on replication of RNA virus HIV-1 in MT-4 cell line.; format: functional, cell-based; settings: Homo sapiens
[25] = Inhibitory effect on replication of DNA virus HSV-1 (KOS) in PRK cell line.; format: functional, cell-based; settings: Oryctolagus cuniculus
[26] = tested on: PRK; test: Inhibitory effect on replication of RNA virus cell morphology in PRK cell line.; format: functional, cell-based; settings: Oryctolagus cuniculus
[27] = tested on: MDCK; test: cells; settings: Canis lupus familiaris; remark: listed apart in the source
[28] = tested on: Vero; test: Inhibitory effect on replication of RNA virus SV in Vero cell line.; format: functional, cell-based; settings: Chlorocebus sabaeus
[29] = tested on: MT4; test: Inhibitory effect on replication of RNA virus cell growth in MT-4 cell line.; format: functional, cell-based; settings: Homo sapiens
[30] = tested on: Vero; test: Inhibitory effect on replication of RNA virus reo-1 in Vero cell line.; format: functional, cell-based; settings: Chlorocebus sabaeus
[31] = tested on: HeLa; test: Inhibitory effect on replication of RNA virus cell morphology in HeLa cell line.; format: functional, cell-based; settings: Homo sapiens
[32] = tested on: HeLa; test: Inhibitory effect on replication of RNA virus VSV in HeLa cell line.; format: functional, cell-based; settings: Homo sapiens
[33] = tested on: MT4; test: Inhibitory effect on replication of RNA virus HIV-2 in MT-4 cell line.; format: functional, cell-based; settings: Homo sapiens
[34] = tested on: HeLa; test: Inhibitory effect on replication of RNA virus coxsB-4 in HeLa cell line.; format: functional, cell-based; settings: Homo sapiens
[35] = tested on: MT4; test: Inhibitory effect on replication of DNA virus RNA virus HIV-1 in MT-4 cell line.; format: functional, cell-based; settings: Homo sapiens
[36] = tested on: MT4; test: Inhibitory effect on replication of DNA virus RNA virus HIV-2 in MT-4 cell line.; format: functional, cell-based; settings: Homo sapiens
[37] = tested on: HEL; test: Inhibitory effect on replication of DNA virus Cell growth on HEL cell line.; format: functional, cell-based; settings: Homo sapiens

| SMILES | IC50 [3] [µg/mL] | IC50 [4] [µg/mL] | IC50 [5] [µg/mL] | IC50 [6] [µg/mL] | IC50 [7] [µg/mL] | IC50 [8] [µg/mL] | IC50 [10] [µg/mL] | IC50 [11] [µg/mL] | IC50 [12] [µg/mL] | IC50 [13] [µg/mL] | IC50 [14] [µg/mL] | IC50 [15] [µg/mL] | IC50 [16] [µg/mL] | IC50 [17] [µg/mL] | IC50 [19] [µg/mL] | IC50 [20] [µg/mL] | IC50 [23] [µg/mL] | IC50 [25] [µg/mL] | IC50 [26] [µg/mL] | IC50 [27] [µg/mL] | further results |
| --- | --- | --- | --- | --- | --- | --- | --- | --- | --- | --- | --- | --- | --- | --- | --- | --- | --- | --- | --- | --- | --- |
| Nc1ncnc2c1ncn2[C@@H]1C=C(CF)[C@@H](O)[C@H]1O | 10 (≈ 37.7 µM) | 40 (≈ 151 µM) | > 400 | > 200 | 7 (≈ 26.4 µM) | > 100 | 0.4 (≈ 1.51 µM) | 0.2 (≈ 0.754 µM) | > 400 | 0.4 (≈ 1.51 µM) | > 100 | 2.5 (≈ 9.43 µM) | > 200 | 200 (≈ 754 µM) | 10 (≈ 37.7 µM) | 2 (≈ 7.54 µM) | 2.5 (≈ 9.43 µM) | > 400 | > 400 | > 100 | IC50 [1]: 20 µg/mL (≈ 75.4 µM); IC50 [2]: 5 µg/mL (≈ 18.9 µM); IC50 [9]: 65 µg/mL (≈ 245 µM); IC50 [18]: 20 µg/mL (≈ 75.4 µM); IC50 [21]: 150 µg/mL (≈ 566 µM); IC50 [22]: 70 µg/mL (≈ 264 µM); IC50 [24]: > 1.5 µg/mL; IC50 [28]: 7 µg/mL (≈ 26.4 µM); IC50 [29]: 3 µg/mL (≈ 11.3 µM); IC50 [30]: 2 µg/mL (≈ 7.54 µM); IC50 [31]: > 200 µg/mL; IC50 [32]: 2 µg/mL (≈ 7.54 µM); IC50 [33]: > 1.5 µg/mL; IC50 [34]: > 200 µg/mL |
| C=CC1=C[C@@H](n2cnc3c(N)ncnc32)[C@H](O)[C@@H]1O | 100 (≈ 386 µM) | 400 (≈ 1540 µM) | > 400 | > 200 | 40 (≈ 154 µM) | > 100 | 10 (≈ 38.6 µM) | 20 (≈ 77.1 µM) | > 200 | 8 (≈ 30.9 µM) | > 100 | 18 (≈ 69.4 µM) | > 400 | > 200 | 40 (≈ 154 µM) | 20 (≈ 77.1 µM) | 17 (≈ 65.6 µM) | > 200 | > 400 | > 100 | IC50 [2]: 14 µg/mL (≈ 54 µM); IC50 [9]: 47 µg/mL (≈ 181 µM); IC50 [35]: > 8 µg/mL; IC50 [36]: > 8 µg/mL; IC50 [28]: > 200 µg/mL; IC50 [29]: 6 µg/mL (≈ 23.1 µM); IC50 [30]: 70 µg/mL (≈ 270 µM); IC50 [31]: > 400 µg/mL; IC50 [32]: 300 µg/mL (≈ 1160 µM); IC50 [34]: > 400 µg/mL |
| COCC1=C[C@@H](n2cnc3c(N)ncnc32)[C@H](O)[C@@H]1O | 100 (≈ 361 µM) | 400 (≈ 1440 µM) | > 400 | > 400 | 70 (≈ 252 µM) | > 100 | 20 (≈ 72.1 µM) | 20 (≈ 72.1 µM) | > 400 | 20 (≈ 72.1 µM) | > 100 | 40 (≈ 144 µM) | > 200 | > 400 | 40 (≈ 144 µM) | 20 (≈ 72.1 µM) | 25 (≈ 90.2 µM) | > 400 | > 400 | > 100 | IC50 [1]: 100 µg/mL (≈ 361 µM); IC50 [18]: 60 µg/mL (≈ 216 µM); IC50 [37]: 200 µg/mL (≈ 721 µM); IC50 [21]: 300 µg/mL (≈ 1080 µM); IC50 [22]: 200 µg/mL (≈ 721 µM); IC50 [24]: > 40 µg/mL; IC50 [28]: 70 µg/mL (≈ 252 µM); IC50 [29]: 45 µg/mL (≈ 162 µM); IC50 [30]: 10 µg/mL (≈ 36.1 µM); IC50 [31]: > 400 µg/mL; IC50 [32]: 150 µg/mL (≈ 541 µM); IC50 [33]: > 40 µg/mL; IC50 [34]: > 200 µg/mL |
